This is an account of results in US10780074B2, “Compounds and uses thereof” (Sunovion Pharmaceuticals Inc., priority 2017, dated 2020).

Structures can show the parent of a compound that is named as a salt.

The experiment relates to behaviors of compound-treated mice. The experiment is described as follows: Neuropharmacological Assay (SmartCube). The experiment is classed as in vivo. Conditions: for minimal effective dose: Mus musculus, ip, 0.25 h, dose having 50% or more total activity in SmartCube, i.p., read-out: MED (minimal effective dose); for AD: ADHD (probability that activity matches class) / AG: analgesic (probability that activity matches class) / AX: anxiolytic (probability that activity matches class) / CE: cognitive enhancer (probability that activity matches class) / DP: anti-depressant (probability that activity matches class) / MS: mood stabilizer (probability that activity matches class) / PS: anti-psychotic (probability that activity matches class) / SD: sedative hypnotic (probability that activity matches class) / UN: uncharacterized CNS activity (probability that activity matches class): i.p. 15 min before behavioral test, most efficacious dose(s) of 3 doses. A digest of the protocol: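 Behavioral signatures were captured automatically by video, and each drug class received a probability for the best of three i.p. doses given 15 min pre-test (vehicle: Pharmasolve/PEG/propylene glycol). Potency is given as MED, the lowest mpk dose (typically 0.3–30) reaching 50% or more total activity.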

Turning to `CNC[C@@H]1OCCc2c(-c3cnoc3)cccc21` (single isomer, unassigned) [Compound 84, hydrochloride salt], the minimal effective dose (usually the smallest amount tested that counted as effective) lay in the range of 3 to 10 mg/kg, the “AD: ADHD (probability that activity matches class)” value (“AD: ADHD” below) was “++ (5% ≤ ++ <25%)”, the “AG: analgesic (probability that activity matches class)” value (“AG: analgesic” below) is on record as “+ (LOQ ≤ + <5%)” and the “AX: anxiolytic (probability that activity matches class)” value (“AX: anxiolytic” for short) is listed as “++ (5% ≤ ++ <25%)”. In addition, the “CE: cognitive enhancer (probability that activity matches class)” value (shortened to “CE: cognitive enhancer”) is listed as “++ (5% ≤ ++ <25%)”, the “DP: anti-depressant (probability that activity matches class)” value (“DP: anti-depressant” below) is given as “++ (5% ≤ ++ <25%)”, the “MS: mood stabilizer (probability that activity matches class)” value (shortened to “MS: mood stabilizer”) is listed as “+ (LOQ ≤ + <5%)” and the “PS: anti-psychotic (probability that activity matches class)” value (“PS: anti-psychotic” for short) was “+ (LOQ ≤ + <5%)”. Moreover, the “SD: sedative hypnotic (probability that activity matches class)” value (shortened to “SD: sedative hypnotic”) is on record as “+ (LOQ ≤ + <5%)” and the “UN: uncharacterized CNS activity (probability that activity matches class)” value (shortened to “UN: uncharacterized CNS activity”) is “++ (5% ≤ ++ <25%)”.

On to `CNC[C@H]1OCCc2c(-c3cnoc3)cccc21` (single isomer, unassigned) [Compound 85, hydrochloride salt], for which the minimal effective dose was no more than 3 mg/kg, the “AD: ADHD” value was “++ (5% ≤ ++ <25%)”, the “AG: analgesic” value is “+ (LOQ ≤ + <5%)” and the “AX: anxiolytic” value is listed as “++ (5% ≤ ++ <25%)”. Besides, the “CE: cognitive enhancer” value is on record as “+ (LOQ ≤ + <5%)”, the “DP: anti-depressant” value was “++++ (50% ≤ ++++)”, the “MS: mood stabilizer” value is reported as “+ (LOQ ≤ + <5%)” and the “PS: anti-psychotic” value is recorded as “+ (LOQ ≤ + <5%)”. Also, the “SD: sedative hypnotic” value is reported as “+ (LOQ ≤ + <5%)” and the “UN: uncharacterized CNS activity” value was “++ (5% ≤ ++ <25%)”.

Consider `NC[C@@H]1OCCc2c(-c3cnoc3)cccc21` (single isomer, unassigned) [Compound 86, hydrochloride salt], for which the minimal effective dose lay within 3 to 10 mg/kg, the “AD: ADHD” value was “+ (LOQ ≤ + <5%)”, the “AG: analgesic” value is “+ (LOQ ≤ + <5%)” and the “AX: anxiolytic” value is “++ (5% ≤ ++ <25%)”. For the same compound, the “CE: cognitive enhancer” value is given as “++ (5% ≤ ++ <25%)”, the “DP: anti-depressant” value is “++ (5% ≤ ++ <25%)”, the “MS: mood stabilizer” value was “+ (LOQ ≤ + <5%)” and the “PS: anti-psychotic” value is “++ (5% ≤ ++ <25%)”. Also, the “SD: sedative hypnotic” value is recorded as “+ (LOQ ≤ + <5%)” and the “UN: uncharacterized CNS activity” value is reported as “+++ (25% ≤ +++ <50%)”.

For `NC[C@H]1OCCc2c(-c3cnoc3)cccc21` (single isomer, unassigned) [Compound 87, hydrochloride salt], the minimal effective dose is no more than 3 mg/kg, the “AD: ADHD” value is “++ (5% ≤ ++ <25%)”, the “AG: analgesic” value was “+ (LOQ ≤ + <5%)” and the “AX: anxiolytic” value is on record as “++++ (50% ≤ ++++)”. Also, the “CE: cognitive enhancer” value was “+ (LOQ ≤ + <5%)”, the “DP: anti-depressant” value is “++++ (50% ≤ ++++)”, the “MS: mood stabilizer” value is reported as “+ (LOQ ≤ + <5%)” and the “PS: anti-psychotic” value is on record as “+ (LOQ ≤ + <5%)”. The “SD: sedative hypnotic” value was “+ (LOQ ≤ + <5%)” and the “UN: uncharacterized CNS activity” value is on record as “+ (LOQ ≤ + <5%)”.

`NC[C@@H]1OCCc2c(-c3ccon3)cccc21` (single isomer, unassigned) [Compound 88, hydrochloride salt]: the minimal effective dose fell in the range of 10 to 30 mg/kg, the “AD: ADHD” value is listed as “+ (LOQ ≤ + <5%)”, the “AG: analgesic” value is “+ (LOQ ≤ + <5%)” and the “AX: anxiolytic” value is listed as “++ (5% ≤ ++ <25%)”. Also, the “CE: cognitive enhancer” value is “+ (LOQ ≤ + <5%)”, the “DP: anti-depressant” value is “++ (5% ≤ ++ <25%)”, the “MS: mood stabilizer” value is listed as “+ (LOQ ≤ + <5%)” and the “PS: anti-psychotic” value is reported as “+ (LOQ ≤ + <5%)”. Besides, the “SD: sedative hypnotic” value is given as “+ (LOQ ≤ + <5%)” and the “UN: uncharacterized CNS activity” value is recorded as “+ (LOQ ≤ + <5%)”.

Regarding `NC[C@H]1OCCc2c(-c3ccon3)cccc21` (single isomer, unassigned) [Compound 89, hydrochloride salt], the minimal effective dose was no more than 3 mg/kg, the “AD: ADHD” value is recorded as “++ (5% ≤ ++ <25%)”, the “AG: analgesic” value was “++ (5% ≤ ++ <25%)” and the “AX: anxiolytic” value is “+++ (25% ≤ +++ <50%)”. Besides, the “CE: cognitive enhancer” value is recorded as “+ (LOQ ≤ + <5%)”, the “DP: anti-depressant” value is “++++ (50% ≤ ++++)”, the “MS: mood stabilizer” value was “+ (LOQ ≤ + <5%)” and the “PS: anti-psychotic” value was “++ (5% ≤ ++ <25%)”. The “SD: sedative hypnotic” value is reported as “+ (LOQ ≤ + <5%)” and the “UN: uncharacterized CNS activity” value is listed as “++ (5% ≤ ++ <25%)”.

Turning to `CNC[C@@H]1OCCc2c(-c3ccon3)cccc21` (single isomer, unassigned) [Compound 90, hydrochloride salt], the minimal effective dose lay in the range of 10 to 30 mg/kg, the “AD: ADHD” value was “+ (LOQ ≤ + <5%)”, the “AG: analgesic” value is “+ (LOQ ≤ + <5%)” and the “AX: anxiolytic” value is given as “++ (5% ≤ ++ <25%)”. Further, the “CE: cognitive enhancer” value is “+ (LOQ ≤ + <5%)”, the “DP: anti-depressant” value is listed as “+ (LOQ ≤ + <5%)”, the “MS: mood stabilizer” value is listed as “+ (LOQ ≤ + <5%)” and the “PS: anti-psychotic” value is recorded as “+ (LOQ ≤ + <5%)”. Also, the “SD: sedative hypnotic” value is given as “+ (LOQ ≤ + <5%)” and the “UN: uncharacterized CNS activity” value is “+ (LOQ ≤ + <5%)”.

For the compound `CNC[C@H]1OCCc2c(-c3ccon3)cccc21` (single isomer, unassigned) [Compound 91, hydrochloride salt], the minimal effective dose was no more than 3 mg/kg, the “AD: ADHD” value was “++++ (50% ≤ ++++)”, the “AG: analgesic” value is recorded as “+ (LOQ ≤ + <5%)” and the “AX: anxiolytic” value is reported as “++ (5% ≤ ++ <25%)”. Besides, the “CE: cognitive enhancer” value was “+ (LOQ ≤ + <5%)”, the “DP: anti-depressant” value is on record as “++++ (50% ≤ ++++)”, the “MS: mood stabilizer” value is “+ (LOQ ≤ + <5%)” and the “PS: anti-psychotic” value was “+ (LOQ ≤ + <5%)”. The “SD: sedative hypnotic” value is “++ (5% ≤ ++ <25%)” and the “UN: uncharacterized CNS activity” value is recorded as “+++ (25% ≤ +++ <50%)”.

`NC[C@@H]1OCCc2c(-c3ccno3)cccc21` (single isomer, unassigned) [Compound 92, hydrochloride salt]: the minimal effective dose was no more than 3 mg/kg, the “AD: ADHD” value was “++ (5% ≤ ++ <25%)”, the “AG: analgesic” value is “+ (LOQ ≤ + <5%)” and the “AX: anxiolytic” value is “++ (5% ≤ ++ <25%)”. Further, the “CE: cognitive enhancer” value is reported as “+ (LOQ ≤ + <5%)”, the “DP: anti-depressant” value was “++ (5% ≤ ++ <25%)”, the “MS: mood stabilizer” value is given as “+ (LOQ ≤ + <5%)” and the “PS: anti-psychotic” value was “+ (LOQ ≤ + <5%)”. Besides, the “SD: sedative hypnotic” value was “++ (5% ≤ ++ <25%)” and the “UN: uncharacterized CNS activity” value was “+++ (25% ≤ +++ <50%)”.

As to `NC[C@H]1OCCc2c(-c3ccno3)cccc21` (single isomer, unassigned) [Compound 93, hydrochloride salt], the minimal effective dose was in the range of 10 to 30 mg/kg, the “AD: ADHD” value is reported as “+ (LOQ ≤ + <5%)”, the “AG: analgesic” value is recorded as “+ (LOQ ≤ + <5%)” and the “AX: anxiolytic” value is on record as “+ (LOQ ≤ + <5%)”. The “CE: cognitive enhancer” value is “+ (LOQ ≤ + <5%)”, the “DP: anti-depressant” value is on record as “+ (LOQ ≤ + <5%)”, the “MS: mood stabilizer” value was “+ (LOQ ≤ + <5%)” and the “PS: anti-psychotic” value was “+ (LOQ ≤ + <5%)”. The “SD: sedative hypnotic” value is “+ (LOQ ≤ + <5%)” and the “UN: uncharacterized CNS activity” value was “+ (LOQ ≤ + <5%)”.

As for `CNC[C@H]1OCCc2c(-c3cnco3)cccc21` (single isomer, unassigned) [Compound 97, hydrochloride salt], the minimal effective dose was no more than 3 mg/kg, the “AD: ADHD” value was “+ (LOQ ≤ + <5%)”, the “AG: analgesic” value is recorded as “++ (5% ≤ ++ <25%)” and the “AX: anxiolytic” value is on record as “++ (5% ≤ ++ <25%)”. The “CE: cognitive enhancer” value is recorded as “+ (LOQ ≤ + <5%)”, the “DP: anti-depressant” value is listed as “++ (5% ≤ ++ <25%)”, the “MS: mood stabilizer” value is listed as “+ (LOQ ≤ + <5%)” and the “PS: anti-psychotic” value is reported as “++ (5% ≤ ++ <25%)”. Also, the “SD: sedative hypnotic” value was “++++ (50% ≤ ++++)” and the “UN: uncharacterized CNS activity” value was “++ (5% ≤ ++ <25%)”.
